For orientation: IC50 means the point on the concentration scale where inhibition reaches its midpoint.

Like-named read-outs stand apart in the source and are kept apart here. Residues, ends and D or L forms follow the SMILES beside them.

Series [1] has as its target T1, ACE (Oryctolagus cuniculus, UniProt P12822).
T1 construct: Angiotensin I-converting enzyme (ACE, EC3.4.15.1) from rabbit lung; purchased Sigma-Aldrich Co. (St. Louis, MO, USA); host or cells: rabbit lung (tissue-derived)
T1 sequence (P12822 34-1310): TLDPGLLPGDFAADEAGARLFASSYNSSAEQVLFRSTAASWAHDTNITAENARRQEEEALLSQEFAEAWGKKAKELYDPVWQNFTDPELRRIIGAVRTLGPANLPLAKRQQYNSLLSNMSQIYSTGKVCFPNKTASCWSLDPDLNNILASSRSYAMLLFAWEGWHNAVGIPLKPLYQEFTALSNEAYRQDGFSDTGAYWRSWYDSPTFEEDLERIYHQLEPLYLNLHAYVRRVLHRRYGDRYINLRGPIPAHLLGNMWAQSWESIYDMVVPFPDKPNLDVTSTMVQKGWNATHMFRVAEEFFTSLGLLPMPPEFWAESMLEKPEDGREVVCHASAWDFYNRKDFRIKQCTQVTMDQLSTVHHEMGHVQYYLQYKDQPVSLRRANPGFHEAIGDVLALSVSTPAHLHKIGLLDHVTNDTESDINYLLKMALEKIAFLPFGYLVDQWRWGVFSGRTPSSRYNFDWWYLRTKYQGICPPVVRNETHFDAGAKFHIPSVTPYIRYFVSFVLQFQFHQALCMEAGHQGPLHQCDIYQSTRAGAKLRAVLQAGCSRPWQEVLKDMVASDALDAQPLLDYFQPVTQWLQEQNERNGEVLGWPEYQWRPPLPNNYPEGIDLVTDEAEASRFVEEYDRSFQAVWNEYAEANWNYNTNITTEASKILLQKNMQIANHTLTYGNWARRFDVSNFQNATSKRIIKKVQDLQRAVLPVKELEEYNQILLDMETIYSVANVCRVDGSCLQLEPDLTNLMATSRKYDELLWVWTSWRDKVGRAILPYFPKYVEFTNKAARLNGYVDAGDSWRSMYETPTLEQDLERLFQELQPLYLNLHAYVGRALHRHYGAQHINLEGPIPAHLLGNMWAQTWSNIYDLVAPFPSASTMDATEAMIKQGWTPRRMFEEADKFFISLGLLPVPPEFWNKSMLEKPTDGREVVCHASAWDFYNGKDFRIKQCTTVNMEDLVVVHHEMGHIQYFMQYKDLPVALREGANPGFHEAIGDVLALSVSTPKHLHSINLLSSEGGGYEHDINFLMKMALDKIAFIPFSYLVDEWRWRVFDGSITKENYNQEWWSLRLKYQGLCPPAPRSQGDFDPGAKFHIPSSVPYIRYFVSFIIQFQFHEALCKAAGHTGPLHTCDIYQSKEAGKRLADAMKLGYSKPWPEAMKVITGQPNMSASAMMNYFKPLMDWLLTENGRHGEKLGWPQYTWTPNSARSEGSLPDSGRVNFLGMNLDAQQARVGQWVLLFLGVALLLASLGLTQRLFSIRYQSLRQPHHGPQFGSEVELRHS
Kind of series: Inhibition pattern / kinetics of ACE in presence of KNFL. In kind it is biochemical, rabbit. The conditions noted are these: for Vmax: nonlinear regression, control 55.492. From the text:
ACE inhibitor peptides have been reported with competitive, noncompetitive, uncompetitive, and mixed modes of interaction. The kinetic constants were estimated by using nonlinear regression analysis (SPSS, version 26.0, Inc., Chicago, IL, USA) and the nonlinear fitting plots were shown in Figure 8. […] Mixed-type inhibitors interact with the non-catalytic site of the enzyme and combine with the enzyme to produce an ACE–HHL(Hip-His-Leu) peptide complex which might leads to conformational changes and a decrease in substrate affinity at the active site resulting in loss of activity. A great many of ACE inhibitor peptides acted in a mixed-type manner. For example, the MAINPSKENLCSTFCK peptide produced from casein hydrolysates, and EVSQGRP, VSRHFASYAN and SAAVGSP generated from Stichopus horrens.
Angiotensin I-converting enzyme (ACE, EC3.4.15.1) from rabbit lung, HHL (Hippuryl-L-histidyl-L-leucine), were obtained from Sigma-Aldrich Co. (St. Louis, MO, USA). The ACE inhibitor KNFL (Lys-Asn-Phe-Leu) was supplied by GL Biochem Ltd. (Shanghai, China). Iron chloride hexahydrate (FeCl3·6H2O), ethylene glycol (EG), diethylene glycol (DEG), sodium acetate anhydrous (NaAc), and zinc acetate dehydrate Zn(CH3COO)2·2H2O were all obtained from Sinopharm Chemical Reagent Co., Ltd. (Shanghai, China). Polyacrylic acid (PAA), imidazolate-2-carboxyaldehyde (2-ICA, 98 %), sodium acrylate (NaAA) were purchased from Macklin Biochemical Co., Ltd (Shanghai, China). The other chemicals and reagents used were of AR grade and used without further purification.
ACE activity was evaluated by measuring the amount of hippuric acid (HA). The assay mixture (0.3 mL) consisted of 130 µL BBS buffer pH 8.3 ([…], containing 0.3 M NaCl), 40 µL HHL (5 mM), and different amounts of the free and immobilized ACE. Incubation was carried out at 37 °C for 10 min and was terminated by addition of HCl (0.1 mL, 1 M). The HA content of the mixture was determined by RP-HPLC (Agilent 1260) at 228 nm with a DAD detector. One unit of ACE enzyme activity (U) was defined as the amount of enzyme catalyzing HHL to generate 1 µM of HA per minute under the experimental conditions.

For series [2] the following is noted: amino acid residue; source not given; cited from earlier work.
For series [3] the following is noted: synthetic ACE inhibitors in hypertension treatment; ref [1]; cited from earlier work. From the text: As a zinc-dependent carboxypeptidase, angiotensin-I-converting enzyme (ACE EC 3.4.15.1) is prolific in biological tissues and blood, and plays an important role in modulating blood pressure. ACE cannot only convert angiotensin I to angiotensin II (a potent vasoconstrictor), but it can also degrade the vasodilator bradykinin [2]. ACE inhibitors are, thus, a class of drugs frequently used in the treatment of hypertension. Synthetic ACE inhibitors, including captopril, benazepril, enalapril, and perindopril are associated with various side effects, such as cough, taste disturbances, aller ...

Series [4] concerns ACE. The conditions noted are these: cited from earlier work. An excerpt:
Table 1 The summary of ACE inhibitory peptides by conventional approach and affinity purification on different medium. | column: IC50 || Table 2 The summary of ACE inhibitory peptides have similar structure with purified peptides KNFL from food protein. | column: IC50 (μM) || Researchers have investigated the structure-activity relationship of ACE inhibitor peptides, such as the peptide chain length, amino acid sequence, C- terminal, and N-terminal amino acid sequence. Most of the ACE inhibitors are reported to have small molecular weights (2–12 amino acids), and there are four amino acids in the newly identified peptide KNFL. […] In this study, the C-terminal amino acids (phenylalanine and leucine) of the KNFL peptide have stro ...

For series [5], the system named is ACE. The conditions noted are these: cited from earlier work. From the text: ACE inhibitor peptides have been reported with competitive, noncompetitive, uncompetitive, and mixed modes of interaction. The kinetic constants were estimated by using nonlinear regression analysis (SPSS, version 26.0, Inc., Chicago, IL, USA) and the nonlinear fitting plots were shown in Figure 8. […] Mixed-type inhibitors interact with the non-catalytic site of the e ...
The source holds these as a separate data set.

Where [6] appears, read: in the presence of KNFL (192 and 384 µM).
[7] abbreviates: Wakame, conventional approach, ref [28].
Setting [8] is: generated from Stichopus horrens, ref [51].
[9] abbreviates: Volutharpa ampullaceal perryi, affinity purification/ Zn-SBA-15-ACE, ref [12].

With `CC(C)C[C@H](NC(=O)[C@H](Cc1ccccc1)NC(=O)[C@H](CC(N)=O)NC(=O)[C@@H](N)CCCCN)C(=O)O` [KNFL, Lys-Asn-Phe-Leu] (H-KNFL-OH; N-terminus and C-terminus assumed), in series [1] (KNFL at 192 µM), the Vmax is 45.958 µM/L·min. Besides, in series [1] (KNFL at 384 µM), the Vmax worked out at 24.105 µM/L·min. Further, the inhibition pattern entry in series [1] (b33/b37: nonlinear regression, b1: Lineweaver–Burk analysis) is reported as “mixed-type inhibition”. For the same compound, in series [1] (setting [6]), the “effect on Km” value is recorded as “increased” and the “effect on Vmax” value is on record as “decreased in a dose-dependent pattern”.
In the case of `N=C(N)NCCC[C@H](N)C(=O)O` [arginine], in series [2], the “Lipophilicity Parameters” value is −4.5.
For the compound `NC(=O)C[C@H](N)C(=O)O` [asparagine], the “Lipophilicity Parameters” value in series [2] is −3.5.
For `N[C@@H](CC(=O)O)C(=O)O` [aspartic acid], the “Lipophilicity Parameters” value in series [2] was −3.5.
Take `CCOC(=O)[C@H](CCc1ccccc1)N[C@H]1CCc2ccccc2N(CC(=O)O)C1=O` [benazepril]: the side effects result in series [3] is “cough, taste disturbances, allergic reactions, and skin rashes”.
As for `C[C@H](CS)C(=O)N1CCC[C@H]1C(=O)O` [captopril], the side effects entry in series [3] was “cough, taste disturbances, allergic reactions, and skin rashes”.
Consider `CCOC(=O)[C@H](CCc1ccccc1)N[C@@H](C)C(=O)N1CCC[C@H]1C(=O)O` [enalapril], for which, in series [3], the side effects entry is “cough, taste disturbances, allergic reactions, and skin rashes”.
`N[C@@H](CCC(=O)O)C(=O)O` [glutamic acid]: the “Lipophilicity Parameters” value in series [2] is −3.5.
Turning to `NC(=O)CC[C@H](N)C(=O)O` [glutamine], the “Lipophilicity Parameters” value in series [2] was −3.5.
With `N[C@@H](Cc1c[nH]cn1)C(=O)O` [histidine], the “Lipophilicity Parameters” value in series [2] is reported as −3.2.
For the compound `CC(C)C[C@H](N)C(=O)O` [leucine], the “Lipophilicity Parameters” value in series [2] was 3.8.
As for `NCCCC[C@H](N)C(=O)O` [lysine], in series [2], the “Lipophilicity Parameters” value is −3.9.
`CCC[C@H](N[C@@H](C)C(=O)N1[C@H](C(=O)O)C[C@@H]2CCCC[C@@H]21)C(=O)OCC` [perindopril]: the side effects entry in series [3] was “cough, taste disturbances, allergic reactions, and skin rashes”.
On to `N[C@@H](CO)C(=O)O` [serine], for which the “Lipophilicity Parameters” value in series [2] is given as −0.8.
As for AIYK, in series [4] (setting [7]), the IC50 is 213 µM.
Consider “EVSQGRP [peptide generated from Stichopus horrens]”, for which the inhibition mode entry in series [5] (setting [8]) is on record as “mixed-type”.
For the compound GMKCAF, the IC50 in series [4] (lizard fish, affinity purification/ Magnetic agarose-ACE, ref [6]) was 45.7 ± 1.1 µM.
In the case of HLHT, the IC50 in series [4] (Pinctada fucata martensii, affinity purification/ IMAM @ mPEG, ref [10]) is 458.1 ± 3.24 µM.
As for IVTNWDDMGK, the IC50 in series [4] (setting [9]) was 2080 µM.
Regarding KFYG, the IC50 in series [4] (setting [7]) was 90.5 µM.
For KNGDGY, the IC50 in series [4] (Cuttlefish, ref [49]) is 51.6 µM.
As for LLYQEPVLGPVR, the IC50 in series [4] (casein, affinity purification/ IMAM @ mPEG, ref [9]) is 274 ± 5 µM.
Consider “MAINPSKENLCSTFCK [peptide produced from casein hydrolysates]”, for which the inhibition mode result in series [5] (produced from casein hydrolysates, ref [50]) is “mixed-type”.
Consider RVCLP, for which, in series [4] (lizard fish, conventional approach, ref [29]), the half-maximal inhibitory concentration (IC50) was 175 µM.
As to RYRP, in series [4] (lizard fish, affinity purification/ IMAC-Ni^2+, ref [39]), the IC50 was 52 µM.
Consider “SAAVGSP [peptide generated from Stichopus horrens]”, for which the inhibition mode result in series [5] (setting [8]) is “mixed-type”.
With VGPAGRRG, the IC50 in series [4] (setting [9]) is 4660 µM.
With “VSRHFASYAN [peptide generated from Stichopus horrens]”, in series [5] (setting [8]), the inhibition mode result was “mixed-type”.
Take WYLHYA: the concentration for half-maximal inhibition (IC50) in series [4] (casein, affinity purification/ IMAC-Ni^2+, ref [41]) was 16.2 µM.
As to YKYY, in series [4] (setting [7]), the IC50 is 64.2 µM.
In the case of YNKL, the half-inhibitory concentration (IC50) in series [4] (setting [7]) is 21 µM.
